Measured values reported in US20240425518A1, “N-MACROCYCLIC AMIDE COMPOUNDS, PREPARATION METHODS THEREOF AND APPLICATIONS THEREOF AS MEDICAMENTS” (Chengdu FANXI Biopharma Co., Ltd., priority 2023, published 2024).

Key:
Type in all cases: biochemical
Flt3 (D835Y) (h) = biological target: T1, Flt3 (D835Y) (h) (Homo sapiens, UniProt P36888, D835Y); test: Radioisotope labeling kinase assay (Eurofins), Flt3 (D835Y); conditions: for activity at 1 µM: 1 μM compound, read-out: Inhibitory activity per unit concentration/Activity % Flt3 (D835Y) (h)
T1 construct: purchased Eurofins
T1 sequence (P36888 27-993 D835Y): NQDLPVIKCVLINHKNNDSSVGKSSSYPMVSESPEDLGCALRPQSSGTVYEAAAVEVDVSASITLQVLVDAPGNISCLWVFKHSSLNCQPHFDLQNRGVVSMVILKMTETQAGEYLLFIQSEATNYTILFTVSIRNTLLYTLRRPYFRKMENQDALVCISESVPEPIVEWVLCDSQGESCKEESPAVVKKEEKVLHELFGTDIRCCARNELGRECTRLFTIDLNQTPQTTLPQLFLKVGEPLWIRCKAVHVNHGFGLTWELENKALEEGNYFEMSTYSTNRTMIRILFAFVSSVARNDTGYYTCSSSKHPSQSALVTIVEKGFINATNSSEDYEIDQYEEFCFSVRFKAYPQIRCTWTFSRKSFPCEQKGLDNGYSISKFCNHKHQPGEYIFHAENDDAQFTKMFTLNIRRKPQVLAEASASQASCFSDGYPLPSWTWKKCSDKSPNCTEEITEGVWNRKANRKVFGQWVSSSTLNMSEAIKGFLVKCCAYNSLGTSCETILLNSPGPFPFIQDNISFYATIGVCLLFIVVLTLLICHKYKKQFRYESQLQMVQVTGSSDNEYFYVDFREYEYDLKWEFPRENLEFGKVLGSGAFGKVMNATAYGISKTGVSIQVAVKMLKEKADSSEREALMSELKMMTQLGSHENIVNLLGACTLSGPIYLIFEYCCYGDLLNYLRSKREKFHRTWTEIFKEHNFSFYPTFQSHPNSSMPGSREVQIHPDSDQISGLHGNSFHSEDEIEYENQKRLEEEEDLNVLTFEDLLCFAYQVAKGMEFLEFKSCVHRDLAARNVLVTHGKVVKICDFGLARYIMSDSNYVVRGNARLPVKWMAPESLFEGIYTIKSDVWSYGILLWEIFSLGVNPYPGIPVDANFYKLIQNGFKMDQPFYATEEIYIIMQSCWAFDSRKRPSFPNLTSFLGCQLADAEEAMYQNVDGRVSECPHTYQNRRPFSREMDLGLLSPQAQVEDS
Procedure: (§1) An activity to a human recombinant protein kinase of a series of compounds was determined by a radioisotope labeling method, which was provided by Eurofins Company. A compound to be detected was mixed with a corresponding protein kinase buffer (20 mM propyl sulfonate (MOPS, […].), 1 mM EDTA, 0.10 β-mercaptoethanol, 0.010 Brij-35, […], and 1 mg/mL BSA), the mixture was added into a reaction system (100 μM reaction substrate […], 8 mM MOPS with a pH value of 7.0, 10 mM MgAcetate, 0.2 mM EDTA, and a certain concentration of γ-^33P-ATP). After adding an MgATP composite solution, the reaction was started at room temperature for 40 minutes, and the reaction was terminated by adding 5 μl of […] solution. Then, 10 μl of reaction solution was dropwise added onto a filter and washed with 75 mM phosphoric acid solution for three times, 5 minutes each time, then washed with methanol once again, and dried and subjected to scintillation counting.

JAK2 (h) = biological target: T2, JAK2 (h) (Homo sapiens, UniProt O60674); test: Radioisotope labeling kinase assay (Eurofins), JAK2
T2 construct: purchased Eurofins
Procedure: as §1

JAK1 (h) = biological target: T3, JAK1 (h) (Homo sapiens, UniProt P23458); test: Radioisotope labeling kinase assay (Eurofins), JAK1
T3 construct: purchased Eurofins
Procedure: as §1

Ab1 (h) = biological target: T4, Ab1 (h) (Homo sapiens, UniProt P00519); test: Radioisotope labeling kinase assay (Eurofins), Ab1; conditions: for activity at 1 µM: 1 μM compound, read-out: Inhibitory activity per unit concentration/Activity % Ab1 (h)
T4 construct: purchased Eurofins
Procedure: as §1

Ret (h) = biological target: T5, Ret (h) (Homo sapiens, UniProt P07949); test: Radioisotope labeling kinase assay (Eurofins), Ret
T5 construct: purchased Eurofins
Procedure: as §1

BTK (h) = biological target: T6, BTK (h) (Homo sapiens, UniProt Q06187); test: Radioisotope labeling kinase assay (Eurofins), BTK; conditions: for activity at 1 µM: 1 μM compound, read-out: Inhibitory activity per unit concentration/Activity % BTK (h)
T6 construct: purchased Eurofins
Procedure: as §1

EGFR (T790M, L858R) (h) = biological target: T7, EGFR (T790M, L858R) (h) (Homo sapiens, UniProt P00533, L858R/T790M); test: Radioisotope labeling kinase assay (Eurofins), EGFR (T790M, L858R)
T7 construct: purchased Eurofins
Procedure: as §1

TrkA (h) = biological target: T8, TrkA (h) (Homo sapiens, UniProt P04629); test: Radioisotope labeling kinase assay (Eurofins), TrkA
T8 construct: purchased Eurofins
Procedure: as §1

KDR (h) = biological target: T9, KDR (h) (Homo sapiens, UniProt P35968); test: Radioisotope labeling kinase assay (Eurofins), KDR
T9 construct: purchased Eurofins
Procedure: as §1

T6 sequence (Q06187 whole entry): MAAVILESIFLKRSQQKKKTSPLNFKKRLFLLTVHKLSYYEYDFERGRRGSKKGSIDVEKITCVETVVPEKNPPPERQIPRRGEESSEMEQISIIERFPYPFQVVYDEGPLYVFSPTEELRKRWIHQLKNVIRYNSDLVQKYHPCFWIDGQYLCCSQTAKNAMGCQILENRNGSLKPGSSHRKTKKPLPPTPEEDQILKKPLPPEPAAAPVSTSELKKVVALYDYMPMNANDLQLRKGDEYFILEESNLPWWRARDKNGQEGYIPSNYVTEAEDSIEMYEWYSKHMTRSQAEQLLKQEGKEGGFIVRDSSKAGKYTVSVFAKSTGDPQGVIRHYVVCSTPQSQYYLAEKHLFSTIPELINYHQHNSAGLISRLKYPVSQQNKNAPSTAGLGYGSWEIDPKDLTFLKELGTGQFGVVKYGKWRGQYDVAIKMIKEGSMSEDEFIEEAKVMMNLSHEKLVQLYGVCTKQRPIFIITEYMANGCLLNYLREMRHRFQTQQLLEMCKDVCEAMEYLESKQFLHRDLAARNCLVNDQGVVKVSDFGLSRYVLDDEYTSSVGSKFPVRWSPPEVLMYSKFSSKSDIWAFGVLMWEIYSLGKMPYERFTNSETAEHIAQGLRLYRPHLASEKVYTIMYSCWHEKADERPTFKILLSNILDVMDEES
T4 sequence (P00519 whole entry): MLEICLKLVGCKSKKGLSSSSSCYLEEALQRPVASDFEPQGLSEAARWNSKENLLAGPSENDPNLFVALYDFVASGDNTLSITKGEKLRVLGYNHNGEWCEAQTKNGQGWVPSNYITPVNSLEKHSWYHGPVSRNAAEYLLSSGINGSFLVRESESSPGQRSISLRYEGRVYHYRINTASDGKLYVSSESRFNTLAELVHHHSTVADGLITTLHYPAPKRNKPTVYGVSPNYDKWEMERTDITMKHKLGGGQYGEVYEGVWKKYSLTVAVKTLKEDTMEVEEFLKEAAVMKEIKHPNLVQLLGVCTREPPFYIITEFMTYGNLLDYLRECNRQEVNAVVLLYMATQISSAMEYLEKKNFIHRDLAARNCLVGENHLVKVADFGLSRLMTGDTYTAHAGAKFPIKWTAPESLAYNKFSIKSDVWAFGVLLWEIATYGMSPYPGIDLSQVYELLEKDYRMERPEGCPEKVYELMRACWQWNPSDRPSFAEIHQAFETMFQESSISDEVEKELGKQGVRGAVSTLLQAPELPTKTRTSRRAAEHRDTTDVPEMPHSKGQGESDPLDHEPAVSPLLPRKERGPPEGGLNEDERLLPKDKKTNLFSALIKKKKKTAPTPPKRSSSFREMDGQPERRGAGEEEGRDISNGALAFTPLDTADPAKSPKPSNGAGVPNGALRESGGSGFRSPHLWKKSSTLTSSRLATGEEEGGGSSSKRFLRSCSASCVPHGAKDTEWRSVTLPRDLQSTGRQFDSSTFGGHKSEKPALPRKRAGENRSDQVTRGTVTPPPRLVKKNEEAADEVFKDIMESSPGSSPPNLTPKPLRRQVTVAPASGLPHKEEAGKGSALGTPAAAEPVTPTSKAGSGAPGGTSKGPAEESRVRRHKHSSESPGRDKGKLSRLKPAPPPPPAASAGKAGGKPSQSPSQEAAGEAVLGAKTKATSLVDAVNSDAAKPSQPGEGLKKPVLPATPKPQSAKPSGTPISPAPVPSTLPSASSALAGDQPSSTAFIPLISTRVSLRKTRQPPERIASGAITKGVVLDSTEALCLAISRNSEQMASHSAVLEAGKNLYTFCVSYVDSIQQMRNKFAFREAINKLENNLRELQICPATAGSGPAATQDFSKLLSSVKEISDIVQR
T8 sequence (P04629 33-796): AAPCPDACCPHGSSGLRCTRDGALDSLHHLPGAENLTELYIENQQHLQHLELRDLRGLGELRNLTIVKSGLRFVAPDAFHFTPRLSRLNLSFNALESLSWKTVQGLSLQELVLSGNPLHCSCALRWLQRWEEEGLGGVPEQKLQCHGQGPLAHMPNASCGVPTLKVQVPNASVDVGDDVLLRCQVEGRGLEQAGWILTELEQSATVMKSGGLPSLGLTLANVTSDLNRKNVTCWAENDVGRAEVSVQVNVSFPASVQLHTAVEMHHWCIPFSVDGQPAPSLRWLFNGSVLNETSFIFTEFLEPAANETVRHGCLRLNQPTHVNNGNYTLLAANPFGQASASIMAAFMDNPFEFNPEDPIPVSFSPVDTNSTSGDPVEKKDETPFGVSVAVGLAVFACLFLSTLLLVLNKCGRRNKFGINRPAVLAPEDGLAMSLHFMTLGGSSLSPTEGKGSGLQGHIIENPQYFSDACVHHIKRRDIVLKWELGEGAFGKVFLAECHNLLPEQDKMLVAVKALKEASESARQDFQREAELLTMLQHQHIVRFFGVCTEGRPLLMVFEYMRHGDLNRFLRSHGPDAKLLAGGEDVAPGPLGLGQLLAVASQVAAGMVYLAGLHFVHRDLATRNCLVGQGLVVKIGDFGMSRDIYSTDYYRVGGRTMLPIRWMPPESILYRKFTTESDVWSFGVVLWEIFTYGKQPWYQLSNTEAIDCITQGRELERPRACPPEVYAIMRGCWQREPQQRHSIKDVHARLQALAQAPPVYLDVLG
T5 sequence (P07949 29-1114): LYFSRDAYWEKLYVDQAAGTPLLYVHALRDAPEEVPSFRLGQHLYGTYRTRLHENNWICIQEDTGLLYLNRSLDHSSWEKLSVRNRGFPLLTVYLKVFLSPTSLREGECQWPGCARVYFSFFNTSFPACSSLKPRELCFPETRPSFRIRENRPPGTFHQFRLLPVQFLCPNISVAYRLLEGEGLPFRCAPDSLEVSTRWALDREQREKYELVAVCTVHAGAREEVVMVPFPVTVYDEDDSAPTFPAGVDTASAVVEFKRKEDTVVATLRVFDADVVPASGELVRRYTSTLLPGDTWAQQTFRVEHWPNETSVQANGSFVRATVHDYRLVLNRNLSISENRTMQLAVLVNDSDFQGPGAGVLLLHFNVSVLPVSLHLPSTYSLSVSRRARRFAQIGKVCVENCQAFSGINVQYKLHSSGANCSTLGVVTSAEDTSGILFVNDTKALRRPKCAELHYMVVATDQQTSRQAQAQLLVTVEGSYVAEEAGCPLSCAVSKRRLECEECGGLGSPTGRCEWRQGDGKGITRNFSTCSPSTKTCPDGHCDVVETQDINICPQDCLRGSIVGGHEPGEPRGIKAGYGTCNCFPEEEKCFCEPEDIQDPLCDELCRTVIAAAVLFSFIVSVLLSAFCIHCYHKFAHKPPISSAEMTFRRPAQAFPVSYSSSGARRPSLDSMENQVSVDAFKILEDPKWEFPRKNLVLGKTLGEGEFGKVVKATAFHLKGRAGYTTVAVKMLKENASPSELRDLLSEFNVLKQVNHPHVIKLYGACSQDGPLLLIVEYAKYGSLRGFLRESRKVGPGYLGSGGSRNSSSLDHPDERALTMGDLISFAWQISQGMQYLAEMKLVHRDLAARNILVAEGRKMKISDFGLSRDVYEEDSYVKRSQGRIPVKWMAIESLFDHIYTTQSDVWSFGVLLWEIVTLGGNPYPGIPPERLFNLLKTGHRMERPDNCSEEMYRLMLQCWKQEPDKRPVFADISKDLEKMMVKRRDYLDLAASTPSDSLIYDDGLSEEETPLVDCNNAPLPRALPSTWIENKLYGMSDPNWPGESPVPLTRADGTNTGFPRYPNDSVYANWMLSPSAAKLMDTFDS
T3 sequence (P23458 whole entry): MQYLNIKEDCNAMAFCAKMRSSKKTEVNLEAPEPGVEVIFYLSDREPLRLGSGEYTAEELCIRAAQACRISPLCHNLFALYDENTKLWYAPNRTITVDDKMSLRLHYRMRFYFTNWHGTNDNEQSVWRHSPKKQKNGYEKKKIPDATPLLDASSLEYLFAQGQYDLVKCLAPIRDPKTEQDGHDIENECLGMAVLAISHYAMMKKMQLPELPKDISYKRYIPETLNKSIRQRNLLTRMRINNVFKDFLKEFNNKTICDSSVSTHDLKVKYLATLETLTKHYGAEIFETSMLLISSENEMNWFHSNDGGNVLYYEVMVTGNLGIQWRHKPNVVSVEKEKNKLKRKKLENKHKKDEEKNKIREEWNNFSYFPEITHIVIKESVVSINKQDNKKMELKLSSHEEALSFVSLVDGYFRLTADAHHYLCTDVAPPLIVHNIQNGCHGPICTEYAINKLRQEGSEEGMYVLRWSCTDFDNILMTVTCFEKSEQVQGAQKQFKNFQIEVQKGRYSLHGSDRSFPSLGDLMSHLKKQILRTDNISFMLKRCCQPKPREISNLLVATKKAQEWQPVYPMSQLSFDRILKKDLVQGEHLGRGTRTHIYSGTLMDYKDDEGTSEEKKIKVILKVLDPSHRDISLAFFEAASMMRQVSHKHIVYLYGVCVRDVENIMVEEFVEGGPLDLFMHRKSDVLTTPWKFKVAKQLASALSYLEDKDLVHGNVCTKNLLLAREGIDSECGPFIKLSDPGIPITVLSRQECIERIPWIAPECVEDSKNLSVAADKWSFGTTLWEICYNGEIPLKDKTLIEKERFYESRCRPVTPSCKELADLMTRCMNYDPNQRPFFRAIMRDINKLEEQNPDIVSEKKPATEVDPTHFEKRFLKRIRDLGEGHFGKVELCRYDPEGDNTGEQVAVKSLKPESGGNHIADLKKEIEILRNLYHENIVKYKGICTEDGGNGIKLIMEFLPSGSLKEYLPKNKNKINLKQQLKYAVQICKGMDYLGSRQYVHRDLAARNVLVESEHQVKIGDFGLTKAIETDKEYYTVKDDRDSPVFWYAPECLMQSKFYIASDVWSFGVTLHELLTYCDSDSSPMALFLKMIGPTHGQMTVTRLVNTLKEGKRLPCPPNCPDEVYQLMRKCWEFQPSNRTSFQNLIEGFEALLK

| Compound | IC50 (Flt3 (D835Y) (h)) | activity at 1 µM (Flt3 (D835Y) (h)) | IC50 (JAK2 (h)) | IC50 (JAK1 (h)) | activity at 1 µM (Ab1 (h)) | IC50 (Ret (h)) | IC50 (BTK (h)) | activity at 1 µM (BTK (h)) | IC50 (EGFR (T790M, L858R) (h)) | IC50 (TrkA (h)) | IC50 (KDR (h)) | IC50 (Ab1 (h)) |
| --- | --- | --- | --- | --- | --- | --- | --- | --- | --- | --- | --- | --- |
| C/C=C/C(=O)Nc1cc2cc(c1)Nc1nccc(n1)-c1cccc(c1)COC/C=C/COC2 [XVI-4] | 10 nM | -1% | 10 nM | 44 nM | 11% | 314 nM | 238 nM | 9% | 60 nM | 2 nM |  |  |
| C/C=C/C(=O)Nc1cc2cc(c1)Nc1nccc(n1)-c1cccc(c1)COC/C=C/CN(C)C2 [XVI-28] | 20 nM | 1% | 86 nM | 40 nM | 37% | 1980 nM | 1470 nM | 57% | 300 nM | 20 nM | 76 nM |  |
| Nc1cc2cc(c1)Nc1nccc(n1)-c1cccc(c1)COC/C=C/COC2 [XIII-1] | 9 nM | -1% | 6 nM | 17 nM | 11% | 123 nM | 157 nM | 6% | 19 nM | 2 nM | 50 nM |  |
| O=C(/C=C/C(=O)N1CCOCC1)Nc1cc2cc(c1)Nc1nccc(n1)-c1cccc(c1)COC/C=C/COC2 [XVI-10] | 4 nM | 5% | 17 nM | 89 nM | 9% |  |  | 31% |  | 16 nM | 40 nM | 139 nM |
| C#CC(=O)Nc1cc2cc(c1)Nc1nccc(n1)-c1cccc(c1)COC/C=C/COC2 [XVII-1] | 7 nM | -1% | 13 nM | 33 nM | 1% | 110 nM |  | 8% | 39 nM | 2 nM |  |  |
| C1=C/COCc2cccc(c2)-c2ccnc(n2)Nc2cc(cc(OC/C=C/CN3CCCC3)c2)COC/1 [XVI-12] | 3 nM | 7% | 124 nM | 492 nM |  |  |  | 38% |  | 18 nM |  |  |
| CN(C)C/C=C/C(=O)Nc1cc2cc(c1)Nc1nccc(n1)-c1cccc(c1)COC/C=C/COC2 [XVI-8] | 9 nM | -2% | 29 nM | 262 nM | 4% | 79 nM | 48 nM | 9% | 17 nM | 3 nM | 97 nM |  |
